1 compound from patent US20180267025A1, “CANCER ANALYSIS SYSTEM” (Xcell Biosciences, Inc., priority 2013, published 2018) can be followed below.

This assay concerns single cells. Nature of the assay: chemosensitivity assay on single cells (live-cell imaging, FIG. 10). The settings on record: single cell imaged before, upon addition, and 2 minutes and 5 minutes after Y-27632 treatment. The class given is cell-based. The source says:
FIG. 10 depicts a chemosensitivity assay conducted on single cells. Target cell subpopulations can be used for personalized medicine. In the instance of CTCs and CSCs, cells can be used for chemosensitivity testing on whereby standard and exploratory chemotherapy regimens can be tested on cultured CTCs and determination of the effects of chemotherapy drugs on CTCs, including cell viability and cell division rates measurement to determine the efficacy of a given drug. An example of how a chemosensitivity assay can be applied is depicted in FIG. 10. […] In this example, Rho Kinase inhibitor, Y-27632 was used (Ishizaki et al. 2000 Pharmacological Properties of Y-27632, a specific inhibitor of rho-associated kinases. Mol Pharmacol. 57(5):976-83). […] The plasma membrane of the cell retracts upon drug treatment after 2 minutes 1015 and 5 minutes 1020.

Consider `C[C@@H](N)[C@H]1CC[C@H](C(=O)Nc2ccncc2)CC1` [Y-27632], for which the “effect on cell adhesions and plasma membrane of a single cell upon drug treatment” value is “loss of adhesions and retraction of the plasma membrane”.
